The nature of series [1]: Solubility of salt of compound (1) in water at 37° C. The format is physicochemical. To be noted: thermodynamic from solid, shaking at 37° C. for 30 minutes. On the procedure: A suitable amount of test compound is added to a test tube, and 2.5 ml of water is added thereto. After shaking at 37° C. for 30 minutes, the mixture is filtered through a 0.45-μm membrane filter, and 0.5 ml of the filtrate is accurately weighed. Mobile phase is added thereto to make exactly 50 ml, preparing a test solution (dilution ratio: 100-fold). Approximately 5 mg of free-form authentic sample is accurately weighed, and acetonitrile is added thereto to make exactly 50 ml. A 2 ml of this liquid is accurately weighed, and mobile phase is added thereto to make exactly 20 ml, preparing a standard solution (equivalent to 10 μg/ml). By liquid chromatography under the following conditions, 20 μl of both the test solution and standard solution are tested to obtain the peak areas At and As of the test solution and standard solution. Concentration(μg/ml)=Ws/5×10×At/As×100=Ws×At/As×200 Ws: weighed amount of authentic sample (mg) Test Conditions • Detection: ultraviolet absorption photometer • (measurement wavelength: 254 nm) • Column: TOSOH TSKgel ODS-80Ts (0.46 cm×15 cm) • Column temperature: constant temperature of approximately 40° C. • Mobile phase: water/acetonitrile/trifluoroacetic acid=500/500/1 • Flow rate: 1 ml/min

The nature of series [2]: Solubility of compound (1b) in buffer solution (room temperature). The format is physicochemical. The conditions noted are these: for Solubility of compound (1b): crystals could not be added in excess; for solubility thermodynamic at 16 days: thermodynamic from solid, shaken 16 days.
A short description of series [3]: Serum concentration of tolvaptan in female rats after tail-vein administration of a compound (1b) solution. The series is classed as in vivo. The conditions noted are these: dose producing 1 mg of tolvaptan per kg of body weight. On the procedure: A solution of compound (1b) (equivalent to 1 mg of tolvaptan per ml of solution) was prepared. [table] A 79 mg quantity of sodium dihydrogenphosphate•dihydrate and 5 g of mannitol were dissolved in about 90 ml of water for injection. A sodium hydroxide solution was added thereto, and a solution of pH 7 was prepared. Compound (1b) equivalent to 100 mg of tolvaptan was dissolved in this solution. A sodium hydroxide solution was added thereto, and the pH was adjusted to 7. […] This solution was rapidly administered to female rats via the tail vein at a dose such that 1 mg of tolvaptan is produced per kg of body weight. From time to time, blood was collected from the jugular vein under light ethyl ether anesthesia, and serum concentration of tolvaptan was determined by high-speed liquid chromatography (HPLC).

Series [4] is described as follows: Solubility of tolvaptan in Britton-Robinson buffer and purified water. The format is physicochemical. The conditions noted are these: thermodynamic from solid, shaken 4 hours. On the procedure: Tolvaptan was added in excess to Britton-Robinson buffer (pH 2, pH 7, or pH 12) or purified water, and then shaken at 25° C.±1° C. for 4 hours. Each solution was filtered through a filter, and then, using HPLC, the solubility of tolvaptan was quantified by absolute calibration.

Converted amounts (≈) assume the structure as drawn. Marks after values point to notes of the source that are not given here.

Regarding `Cc1ccccc1C(=O)Nc1ccc(C(=O)N2CCCC(OP(=O)([O-])[O-])c3cc(Cl)ccc32)c(C)c1.[Mg+2]` (stereo not shown) [Example 7], in series [1], the solubility at 30 min is greater than 1000 µg/mL.
On the same count and under the same terms, the result for `Cc1ccccc1C(=O)Nc1ccc(C(=O)N2CCCC(OP(=O)([O-])O)c3cc(Cl)ccc32)c(C)c1.[Na+]` (stereo not shown) [Example 8] reads greater than 1000 µg/mL; that for `Cc1ccccc1C(=O)Nc1ccc(C(=O)N2CCCC(OP(=O)([O-])O)c3cc(Cl)ccc32)c(C)c1.[K+]` (stereo not shown) [Example 11], greater than 1000 µg/mL.
On the same count and under the same terms, the result for `COP(=O)(NCCO)OC1CCCN(C(=O)c2ccc(NC(=O)c3ccccc3C)cc2C)c2ccc(Cl)cc21` (stereo not shown) [Example 20] reads greater than 1000 µg/mL.
For `Cc1ccccc1C(=O)Nc1ccc(C(=O)N2CCCC(OP(=O)(O)O)c3cc(Cl)ccc32)c(C)c1` (stereo not shown) [compound (1b)], the melting point is 150 to 152 °C. Also, the “Solubility of compound (1b)” value in series [2] (Citric acid buffer (100 mM), pH before dissolution 8, pH after dissolution 4.2, room temperature) is listed as “at least 8.3* w/v %”. Also, in series [2] (Sodium hydrogencarbonate buffer (100 mM), pH before dissolution 8, pH after dissolution 3.1, room temperature), the “Solubility of compound (1b)” value is listed as “at least 7.1* w/v %”. For the same compound, the “Solubility of compound (1b)” value in series [2] (Sodium phosphate buffer (100 mM), pH before dissolution 8, pH after dissolution 3.3, room temperature) is on record as “at least 7.1* w/v %”. The “Solubility of compound (1b)” value in series [2] (Sodium phosphate buffer (100 mM), pH before dissolution 9, pH after dissolution 3.3, room temperature) was “at least 7.4* w/v %”. The “Solubility of compound (1b)” value in series [2] (Sodium phosphate buffer (100 mM), pH before dissolution 10, pH after dissolution 3.4, room temperature) is reported as “at least 6.5* w/v %”. Further, in series [2] (Tris buffer (100 mM), pH before dissolution 9, pH after dissolution 3.4, room temperature), the “Solubility of compound (1b)” value is given as “at least 6.3* w/v %”. This compound also showed a thermodynamic solubility at 16 days in series [2] (Tris/HCl buffer, pH 8, aqueous buffer, Tris buffer (100 mM), pH before dissolution 8, pH after dissolution 2.9, room temperature) of 7400 µg/mL (≈ 14 mM). The thermodynamic solubility at 16 days in series [2] (pH 5, aqueous buffer, Sodium phosphate buffer (100 mM), pH before dissolution 5, pH after dissolution 3.0, room temperature) was 5800 µg/mL (≈ 11 mM). In series [2] (pH 6, aqueous buffer, Sodium phosphate buffer (100 mM), pH before dissolution 6, pH after dissolution 3.0, room temperature), this compound came in with a solubility (thermodynamic) at 16 days of 13100 µg/mL (≈ 24.8 mM). In addition, in series [2] (pH 7, aqueous buffer, Sodium phosphate buffer (100 mM), pH before dissolution 7, pH after dissolution 3.1, room temperature), the thermodynamic solubility at 16 days was 7600 µg/mL (≈ 14.4 mM). In series [3] (rapid tail-vein administration of compound (1b) solution), the “Time at which tolvaptan was initially detected in serum after intravenous administration” value is listed as “five”. Also, the “Hydrolysis of compound (1b) into tolvaptan in rats” value in series [3] (tail-vein administration) is recorded as “rapidly hydrolyzed into tolvaptan”. Further, in series [1], the solubility at 30 min is greater than 1000 µg/mL.
Take `Cc1ccccc1C(=O)Nc1ccc(C(=O)N2CCCC(O)c3cc(Cl)ccc32)c(C)c1` (stereo not shown) [tolvaptan, Tolvaptan]: the thermodynamic solubility at 4 h in series [4] (aqueous buffer, Britton-Robinson buffer pH 2, 25° C.±1° C.) was found to be 0.2 µg/mL (≈ 0.000445 mM); in series [4] (aqueous buffer, Britton-Robinson buffer pH 7, 25° C.±1° C.), 0.3 µg/mL (≈ 0.000668 mM); in series [4] (aqueous buffer, Britton-Robinson buffer pH 12, 25° C.±1° C.) it was 0.2 µg/mL (≈ 0.000445 mM); in series [4] (purified water, 25° C.±1° C.), 0.2 µg/mL (≈ 0.000445 mM).

Broadly, the solubility is how much of the substance goes into solution per volume. By solubility (thermodynamic) is commonly meant the concentration in solution at equilibrium with solid. The melting point is the temperature of the solid-liquid transition.

The record behind these values is patent US9809609B2, “Water-soluble benzoazepine compound and its pharmaceutical composition” (OTSUKA PHARMACEUTICAL CO., LTD., priority 2005, dated 2017).
